Measurements taken from patent publication US8026218B2, “Bifunctional analgesic compounds for opioid receptor agonists and neurokinin-1 receptor antagonists” (The University of Arizona, priority 2006, dated 2011).
Read-outs that look alike come from different tables or passages of the source. Peptide text beside a SMILES is read from it.

Tests used:
[1] = molecular target: T1, human NK1 receptor (hNK1) (Homo sapiens, UniProt P25103); assay: Radioligand competition binding, [3H]-Substance P, hNK1
T1 construct: expressed in transfected cells

[2] = molecular target: T2, rat μ opioid receptors (rMOR) (Rattus norvegicus, UniProt P33535); assay: biochemical; assay type: biochemical
T2 construct: expressed in transfected cells; host or cells: HN9.10 neuroblastoma cell line, pCDNA3, neomycin-selected clones

[3] = molecular target: T3, human δ opioid receptors (hDOR) (Homo sapiens, UniProt P41143); assay: [35S]GTP-γ-S binding assay, hDOR; assay type: biochemical
T3 construct: expressed in transfected cells; host or cells: HN9.10 neuroblastoma cell line, pCDNA3, neomycin-selected clones

δ opioid receptors (MVD) = molecular target: T4, δ opioid receptors (MVD) (Mus musculus, UniProt P32300); assay: Mouse isolated vas deferens (MVD) assay, opioid agonist
T4 construct: from tissue; host or cells: mouse (ICR) isolated vas deferens

μ opioid receptors (GPI) = assay: Guinea pig isolated ileum (GPI) assay, opioid agonist;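 further: inhibition of electrically evoked contractions (0.1 Hz, 0.4 msec, supramaximal voltage) in organ baths at 37 °C, contraction height 3 min after each cumulative dose versus the 1 min before dosing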
[4] = molecular target: T3, human δ opioid receptors (hDOR); assay: Radioligand competition binding, [3H]DPDPE, hDOR membranes
[5] = molecular target: T5, Substance P receptors (guinea pig NK1) (Cavia porcellus, UniProt P30547); assay: Guinea pig isolated ileum (GPI) assay with substance P stimulation in presence of 1 μM naloxone
T5 construct: from tissue; host or cells: guinea pig (Hartley) ileum LMMP, 1 μM naloxone present

rat NK1 (rNK1) receptor = molecular target: T6, rat NK1 (rNK1) receptor (Rattus norvegicus, UniProt P14600); assay: Radioligand competition binding, [3H]substance P, rNK1/CHO membranes; details: Ki (nM) rNK1, Table 33
T6 construct: expressed in transfected cells; host or cells: CHO (rNK-1/CHO cell line from Dr. James Krause)

[6] = Table 39, read-out: GTP binding rMOR Emax
[7] = Table 39, read-out: GTP binding hDOR Emax
[8] = Table 39, read-out: GPI/LMMP opioid(mu) agonist (IC50; nM)

T2 sequence (P33535 whole entry): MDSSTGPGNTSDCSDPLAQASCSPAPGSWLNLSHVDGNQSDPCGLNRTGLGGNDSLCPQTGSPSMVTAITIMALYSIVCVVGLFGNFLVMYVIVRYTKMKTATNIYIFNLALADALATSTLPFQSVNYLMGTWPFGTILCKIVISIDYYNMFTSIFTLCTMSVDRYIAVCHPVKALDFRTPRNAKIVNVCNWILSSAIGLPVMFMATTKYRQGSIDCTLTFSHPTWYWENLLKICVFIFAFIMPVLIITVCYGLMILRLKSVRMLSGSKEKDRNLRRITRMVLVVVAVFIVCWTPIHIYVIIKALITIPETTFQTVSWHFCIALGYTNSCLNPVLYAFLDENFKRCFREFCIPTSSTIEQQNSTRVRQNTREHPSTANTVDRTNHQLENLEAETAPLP
T3 sequence (P41143 whole entry): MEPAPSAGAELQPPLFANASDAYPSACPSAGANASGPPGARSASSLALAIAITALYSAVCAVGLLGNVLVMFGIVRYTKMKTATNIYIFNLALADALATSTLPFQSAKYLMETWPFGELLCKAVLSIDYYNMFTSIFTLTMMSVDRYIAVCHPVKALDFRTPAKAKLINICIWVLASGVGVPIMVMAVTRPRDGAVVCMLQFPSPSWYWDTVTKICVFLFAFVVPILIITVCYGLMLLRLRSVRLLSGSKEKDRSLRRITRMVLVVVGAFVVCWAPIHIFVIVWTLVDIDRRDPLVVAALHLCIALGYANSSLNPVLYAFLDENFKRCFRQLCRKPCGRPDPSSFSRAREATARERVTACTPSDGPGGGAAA
T4 sequence (P32300 whole entry): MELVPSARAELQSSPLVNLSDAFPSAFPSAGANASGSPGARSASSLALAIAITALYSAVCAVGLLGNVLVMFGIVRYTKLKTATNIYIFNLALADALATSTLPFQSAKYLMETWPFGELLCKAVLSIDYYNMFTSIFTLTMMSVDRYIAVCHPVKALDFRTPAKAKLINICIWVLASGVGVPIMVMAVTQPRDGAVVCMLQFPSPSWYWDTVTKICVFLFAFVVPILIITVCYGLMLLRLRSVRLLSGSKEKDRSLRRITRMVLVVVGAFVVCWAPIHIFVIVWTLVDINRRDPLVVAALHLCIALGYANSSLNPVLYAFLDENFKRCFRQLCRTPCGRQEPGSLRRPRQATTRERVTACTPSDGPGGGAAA
T1 sequence (P25103 whole entry): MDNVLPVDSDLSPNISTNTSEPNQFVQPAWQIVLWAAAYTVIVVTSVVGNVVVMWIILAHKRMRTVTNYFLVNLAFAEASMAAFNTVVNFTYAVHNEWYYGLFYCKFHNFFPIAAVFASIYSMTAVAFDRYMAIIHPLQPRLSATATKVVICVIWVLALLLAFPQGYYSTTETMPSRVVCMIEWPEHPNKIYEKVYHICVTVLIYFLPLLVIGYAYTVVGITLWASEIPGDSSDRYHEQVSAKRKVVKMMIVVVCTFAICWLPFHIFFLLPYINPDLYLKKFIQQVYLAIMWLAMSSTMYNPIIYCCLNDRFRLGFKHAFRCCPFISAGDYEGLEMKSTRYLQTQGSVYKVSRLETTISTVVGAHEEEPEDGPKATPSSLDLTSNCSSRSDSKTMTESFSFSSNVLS
T5 sequence (P30547 whole entry): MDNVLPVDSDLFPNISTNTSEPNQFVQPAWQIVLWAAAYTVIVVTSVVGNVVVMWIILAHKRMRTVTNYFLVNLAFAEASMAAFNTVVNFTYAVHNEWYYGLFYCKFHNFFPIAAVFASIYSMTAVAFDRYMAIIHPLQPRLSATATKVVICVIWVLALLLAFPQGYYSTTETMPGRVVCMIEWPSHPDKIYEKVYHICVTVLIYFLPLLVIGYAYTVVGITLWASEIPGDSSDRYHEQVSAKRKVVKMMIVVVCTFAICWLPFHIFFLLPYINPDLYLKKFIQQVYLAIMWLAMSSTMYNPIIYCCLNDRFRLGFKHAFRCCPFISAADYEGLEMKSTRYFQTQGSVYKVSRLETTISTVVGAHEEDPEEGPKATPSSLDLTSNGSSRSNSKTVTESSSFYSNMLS
T6 sequence (P14600 whole entry): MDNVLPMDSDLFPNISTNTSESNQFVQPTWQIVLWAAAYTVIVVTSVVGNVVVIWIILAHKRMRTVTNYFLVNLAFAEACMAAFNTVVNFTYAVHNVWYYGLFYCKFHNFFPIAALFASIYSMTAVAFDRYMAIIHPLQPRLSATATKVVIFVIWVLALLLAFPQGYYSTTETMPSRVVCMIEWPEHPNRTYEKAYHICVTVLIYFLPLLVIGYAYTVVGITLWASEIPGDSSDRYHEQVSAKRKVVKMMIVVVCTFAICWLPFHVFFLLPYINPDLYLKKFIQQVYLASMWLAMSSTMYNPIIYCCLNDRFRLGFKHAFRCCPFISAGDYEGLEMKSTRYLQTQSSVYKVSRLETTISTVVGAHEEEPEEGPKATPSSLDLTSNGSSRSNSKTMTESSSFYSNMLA

SMILES	Ki [1] [nM]	Emax [2, 6] [%]	Emax [3, 7] [%]	IC50 (δ opioid receptors (MVD)) [nM]	IC50 (μ opioid receptors (GPI); [8]) [nM]	Ki [4] [nM]	further results
CCCC[C@H](NC(=O)[C@H](Cc1ccccc1)NC(=O)CNC(=O)[C@@H](C)NC(=O)[C@@H](N)Cc1c(C)cc(O)cc1C)C(=O)N1CCC[C@H]1C(=O)N[C@@H](CC(C)C)C(=O)N[C@@H](Cc1c[nH]c2ccccc12)C(=O)NCc1cccc(C(F)(F)F)c1 [TY053]	1.04	20	–	–	–	–	–
CSCC[C@H](NC(=O)[C@H](Cc1ccccc1)NC(=O)CNC(=O)[C@@H](C)NC(=O)[C@@H](N)Cc1ccc(O)cc1)C(=O)N1CCC[C@H]1C(=O)N[C@@H](CC(C)C)C(=O)N[C@@H](Cc1c[nH]c2ccccc12)C(=O)N(C)Cc1ccccc1 [TY026]	0.001	–	93	7.89	86.7	–	–
C[C@H](NC(=O)[C@H](Cc1ccccc1)NC(=O)CNC(=O)[C@@H](C)NC(=O)[C@@H](N)Cc1ccc(O)cc1)C(=O)N[C@@H](Cc1c[nH]c2ccccc12)C(=O)OCc1cc(C(F)(F)F)cc(C(F)(F)F)c1 [NP31] (HELM PEPTIDE1{Y.[dA].G.F.A.W.[FC(F)(F)c1cc(CO[*:1])cc(C(F)(F)F)c1]}$$$$V2.0; N-terminus assumed)	–	–	–	6.4	–	1.2	EC50 ([3]; Table 32, read-out: GTP hDOR EC50): 3.3 nM; Emax ([3]; Table 32, read-out: GTP hDOR EMax): 91%; EC50 ([2]; Table 32, read-out: GTP rMOR EC50): 11 nM; Emax ([2]; Table 32, read-out: GTP rMOR EMax): 50%; IC50 (μ opioid receptors (GPI); Table 35, read-out: GPI/LMMP μ-agonist IC50): 401 nM; Kb ([5]; GPI/LMMP SP antagonist Ke (nM), Table 35): 18.6 nM
CSCC[C@H](NC(=O)[C@H](Cc1ccccc1)NC(=O)CNC(=O)[C@@H](C)NC(=O)[C@@H](N)Cc1ccc(O)cc1)C(=O)N1CCC[C@H]1C(=O)N[C@@H](CC(C)C)C(=O)N[C@@H](Cc1c[nH]c2ccccc12)C(=O)O [TY043]	–	36	62	8.18	272	1.1	GPI/LMMP SP antagonist (Ke; nM) ([5]; Table 39): no shift
N[C@@H](Cc1ccc(O)cc1)C(=O)NCC(=O)N[C@@H](Cc1c[nH]c2ccccc12)C(=O)OCc1cc(C(F)(F)F)cc(C(F)(F)F)c1 [NP42]	0.003	–	–	–	–	–	Ki (rat NK1 (rNK1) receptor): 0.36 nM; MVD δ-agonist, % at 1 μM (δ opioid receptors (MVD); Table 36, at 1 μM): 7.5% at 1 μM; GPI μ-agonist, % at 1 μM (μ opioid receptors (GPI); Table 36, at 1 μM): 2.6% at 1 μM; GPI SP-antagonist activity @ 1 μM ([5]; Table 36, @ 1 μM): None @ 1 μM
CSCC[C@H](NC(=O)[C@H](Cc1ccccc1)NC(=O)CNC(=O)[C@@H](C)NC(=O)[C@@H](N)Cc1ccc(O)cc1)C(=O)N1CCC[C@H]1C(=O)N[C@@H](CC(C)C)C(=O)N[C@@H](Cc1c[nH]c2ccccc12)C(=O)OCc1ccccc1 [TY029]	–	133	98	7.62	22.2	1.3	EC50 ([3]; Table 39, read-out: GTP binding hDOR EC50): 3.4 nM
C[C@@H](NC(=O)[C@@H](N)Cc1ccc(O)cc1)C(=O)NCC(=O)N[C@@H](Cc1c[nH]c2ccccc12)C(=O)OCc1cc(C(F)(F)F)cc(C(F)(F)F)c1 [NP44] (HELM PEPTIDE1{Y.[dA].G.W.[FC(F)(F)c1cc(CO[*:1])cc(C(F)(F)F)c1]}$$$$V2.0; N-terminus assumed)	–	–	–	303	–	–	Ki (rat NK1 (rNK1) receptor): 3.4 nM; IC50 (μ opioid receptors (GPI); Table 36, read-out: GPI μ-agonist IC50): 844 nM; Kb ([5]; GPI SP-antagonist Ke (nM), Table 36): 5 nM
